Some test systems named below: MDA-N; LXFL 529; HOP-18; KM-20L2; SNB-78; BT-549; MDA-MB-231; Hs-578T; RXF 631.
What all share (test): inhibition of tumour cell growth, NCI panel, 48 h

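Dose response: 5 concentrations. Exposure: 48 h. Format: 96-well plates. Endpoint: linear interpolation; highest concentration if not reached. Abbreviation: GI50, concentration required for 50% inhibition of growth.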 Active and inactive are the calls of the source. Cut-off read from the data, not from the text of the source: active = GI50 up to about 1.1 µM and inactive = higher.

Turning to `CN(C)CCCCN1CCc2c(n(C)c3ccccc23)C1=O`, the GI50 in the assay with MDA-N is 13.4 µM (inactive); in the assay on LXFL 529, 19.4 µM (inactive); in the assay with HOP-18, > 100 µM (inactive); with KM-20L2, 33 µM (inactive); in the assay on SNB-78, > 100 µM (inactive); with BT-549, > 37.8 µM (inactive). In addition, the GI50 with MDA-MB-231 is 24.6 µM (inactive); in the assay on Hs-578T it was 41.8 µM (inactive).

Turning to `O=C1C=C(c2ccccc2)NC1(c1ccccc1)c1cc(-c2ccccc2)[nH]c1-c1ccccc1` (stereo unspecified), the GI50 in the assay on RXF 631, with LXFL 529, in the assay with HOP-18, in the assay on KM-20L2 and in the assay with SNB-78 was > 100 µM (inactive) each time.

As for `Cc1cc(=O)n(-c2c(C)cccc2Cl)c(/C=C(\O)c2ccncc2)n1`, the GI50 in the assay on RXF 631, with LXFL 529, in the assay with HOP-18, in the assay on KM-20L2 and in the assay on SNB-78 was > 100 µM (inactive) throughout.

Consider `CC1=C(NC(=O)C(=O)NNC(=O)c2ccncc2)C(=O)c2ccccc2C1=O`, for which the GI50 in the assay with RXF 631 was 40.4 µM (inactive); in the assay with LXFL 529, 14.6 µM (inactive); in the assay with HOP-18, 10.5 µM (inactive); in the assay on KM-20L2, 23.4 µM (inactive); in the assay with SNB-78 it was 14.5 µM (inactive).

For the compound `CCOC(=O)C(=O)Nc1ccccc1C`, the GI50 in the assay on RXF 631, with LXFL 529, in the assay with KM-20L2 and in the assay with SNB-78 was > 100 µM (inactive) throughout.

Consider `CC(C)c1ccc(Cc2ccc(C(C)C)c(NC(=O)C(=O)Cc3cnc4ccccc4n3)c2C(C)C)c(C(C)C)c1NC(=O)C(=O)Cc1cnc2ccccc2n1`, for which the GI50 with RXF 631, in the assay with LXFL 529, with KM-20L2 and in the assay with SNB-78 was > 100 µM (inactive) each time.

For the compound `O=C1C(Cl)=C(Cl)C(=O)N1c1cccc(C(F)(F)F)c1`, the GI50 with RXF 631, with LXFL 529, in the assay with HOP-18, with KM-20L2 and in the assay on SNB-78 was > 100 µM (inactive) in each case.

Consider `CC(C)N(C(=O)C12C3C4C1C1C2C3C41C(=O)N(C(C)C)C(C)C)C(C)C` (stereo unspecified), for which the GI50 in the assay on RXF 631, with LXFL 529, in the assay on KM-20L2 and with SNB-78 was > 50 µM (inactive) in each case.

For the compound `NC(=O)c1cn(Cc2ccccc2)c(=O)n1Cc1ccccc1`, the GI50 in the assay on LXFL 529, with HOP-18, in the assay on KM-20L2 and in the assay on SNB-78 was > 100 µM (inactive) throughout.

On to `CC1(C)Cc2c(oc3ncnc(N)c23)CS1`, for which the GI50 in the assay with RXF 631, in the assay with LXFL 529, in the assay on KM-20L2 and in the assay with SNB-78 was > 100 µM (inactive) in each case.

With `O=C(O)c1ccc(Nc2nc3nn(Cc4ccccc4)cc3c(=O)s2)cc1`, the GI50 in the assay on LXFL 529 was > 100 µM (inactive); in the assay with HOP-18, 74.8 µM (inactive); with KM-20L2, > 100 µM (inactive); with SNB-78, > 100 µM (inactive).

For the compound `OCC(O)C(OC1OC(CO)C(O)C(O)C1O)c1nn(-c2ccc(Cl)cc2)c2nc3cc(Cl)ccc3nc12` (stereo unspecified), the GI50 in the assay on RXF 631, in the assay on LXFL 529, in the assay on KM-20L2 and in the assay with SNB-78 was > 100 µM (inactive) in each case.

Take `COC(=O)NC12CC3CC(CC(F)(C3)C1)C2`: the GI50 in the assay on RXF 631, in the assay on KM-20L2 and in the assay with SNB-78 was > 100 µM (inactive) throughout.

With `CCOC(C)OCC#CCCBr` (stereo unspecified), the GI50 in the assay on LXFL 529, in the assay with HOP-18, with KM-20L2 and in the assay with SNB-78 was > 100 µM (inactive) each time.

Regarding `N#CC(C(=O)CCC(=O)Nc1cccc(C(F)(F)F)c1)c1ccc(Cl)cc1` (stereo unspecified), the GI50 in the assay on RXF 631, with LXFL 529, with HOP-18, in the assay with KM-20L2 and in the assay with SNB-78 was > 100 µM (inactive) in each case.

As to `CCOC(=O)[C@]12C3C=CC(C3)C1C(=O)C1OC12` (stereo partly specified), the GI50 in the assay on RXF 631, in the assay with LXFL 529, in the assay on HOP-18 and with SNB-78 was > 100 µM (inactive) throughout.

For `CC1=C2C(=CC(C)(CO)C2O)C(=O)C(C)(O)C12CC2` (stereo unspecified), the GI50 with RXF 631 is 0.00274 µM (active); in the assay with LXFL 529, 0.00393 µM (active); with HOP-18 it was 0.007 µM (active); in the assay with KM-20L2 it was 0.00216 µM (active); in the assay with SNB-78 it was 0.00144 µM (active).

Turning to `Cc1c(C(=O)/C=C/c2ccc3c(c2)OCO3)[n+]([O-])c2ccccc2[n+]1[O-]`, the GI50 in the assay on RXF 631 was 53.6 µM (inactive); with LXFL 529 it was 22.2 µM (inactive); in the assay with HOP-18 it was 86.7 µM (inactive); in the assay with KM-20L2 it was 22.3 µM (inactive); with SNB-78, 36.2 µM (inactive).

Take `Cc1cccc(N(CC(=O)O)S(=O)(=O)c2ccccc2)c1`: the GI50 in the assay on RXF 631, in the assay with LXFL 529, in the assay with HOP-18 and with KM-20L2 was > 100 µM (inactive) in each case.

Source of the values: ChEMBL document CHEMBL1201862, “PubChem BioAssay data set” (2004).
